Test results: PubChem BioAssay AID1745844 (Carcinogenic Potency Database (CPDB), 2022)
Activity calls are given as the source filed them. How the calls were made is not given here.

Tested on: rodent lifetime carcinogenesis bioassay, tumor incidence TD50
Experiment: carcinogenic potency in animals, long-term in vivo studies, CPDB compilation (AID 1745844)

SMILES: ClC=CCCl
- TD50 (mouse, strain B6C3F1, females, by gavage, site: any site (literature study), lesion: several types, types named in the paper, dosed 104 weeks, study length 106 weeks): 34.9 mg/kg/day
- TD50 (mouse, strain B6C3F1, females, by gavage, site: liver, lesion: hepatocellular adenoma + hepatocellular carcinoma + neoplastic nodule, dosed 104 weeks, study length 106 weeks): 89.3 mg/kg/day
- TD50 (mouse, strain B6C3F1, females, by gavage, site: liver, lesion: hepatocellular adenoma + hepatocellular carcinoma, dosed 104 weeks, study length 106 weeks): 89.3 mg/kg/day
- TD50 (mouse, strain B6C3F1, females, by gavage, site: liver, lesion: hepatocellular adenoma, dosed 104 weeks, study length 106 weeks): 215 mg/kg/day
- TD50 (mouse, strain B6C3F1, females, by gavage, site: lung + stomach + urinary bladder, lesion: alveolar/bronchiolar adenoma + squamous-cell carcinoma + squamous-cell papilloma + transitional-cell carcinoma, dosed 104 weeks, study length 106 weeks): 36.3 mg/kg/day
- TD50 (mouse, strain B6C3F1, females, by gavage, site: lung, lesion: alveolar/bronchiolar adenoma + alveolar/bronchiolar carcinoma, dosed 104 weeks, study length 106 weeks): 182 mg/kg/day
- TD50 (mouse, strain B6C3F1, females, by gavage, site: lung, lesion: alveolar/bronchiolar adenoma, dosed 104 weeks, study length 106 weeks): 149 mg/kg/day
- TD50 (mouse, strain B6C3F1, females, by gavage, site: stomach, lesion: squamous-cell carcinoma + squamous-cell papilloma, dosed 104 weeks, study length 106 weeks): 344 mg/kg/day
- TD50 (mouse, strain B6C3F1, females, by gavage, site: urinary bladder, lesion: transitional-cell carcinoma, dosed 104 weeks, study length 106 weeks): 49.6 mg/kg/day
- carcinogen call (mouse, strain B6C3F1, females, in feed, site: liver, lesion: hepatocellular adenoma, dosed 104 weeks, study length 104 weeks): negative (inactive)
- carcinogen call (mouse, strain B6C3F1, females, in feed, site: liver, lesion: hepatocellular carcinoma, dosed 104 weeks, study length 104 weeks): negative (inactive)
- carcinogen call (mouse, strain B6C3F1, females, in feed, site: lung, lesion: alveolar/bronchiolar adenoma, dosed 104 weeks, study length 104 weeks): negative (inactive)
- carcinogen call (mouse, strain B6C3F1, females, in feed, site: lung, lesion: alveolar/bronchiolar carcinoma, dosed 104 weeks, study length 104 weeks): negative (inactive)
- carcinogen call (mouse, strain B6C3F1, females, in feed, site: stomach, lesion: one or several types, types not named, dosed 52 weeks, study length 52 weeks): negative (inactive)
- carcinogen call (mouse, strain B6C3F1, females, inhaled, site: any site (literature study), lesion: several types, types named in the paper, dosed 104 weeks, study length 104 weeks): negative (inactive)
- TD50 (mouse, strain B6C3F1, females, inhaled, site: liver, lesion: several types, types named in the paper, dosed 104 weeks, study length 104 weeks): 1810 mg/kg/day (inactive)
- carcinogen call (mouse, strain B6C3F1, females, inhaled, site: lung, lesion: alveolar/bronchiolar adenoma, dosed 104 weeks, study length 104 weeks): negative (inactive)
- carcinogen call (mouse, strain B6C3F1, females, inhaled, site: lung, lesion: one or several types, types not named, dosed 52 weeks, study length 52 weeks): negative (inactive)
- carcinogen call (mouse, strain B6C3F1, females, inhaled, site: mesenteric lymph node, lesion: lymphosarcoma, dosed 104 weeks, study length 104 weeks): negative (inactive)
- TD50 (mouse, strain B6C3F1, females, inhaled, site: pituitary gland, lesion: adenoma, dosed 104 weeks, study length 104 weeks): 19 mg/kg/day (inactive)
- TD50 (mouse, strain B6C3F1, males, by gavage, site: any site (literature study), lesion: several types, types named in the paper, dosed 104 weeks, study length 105 weeks): 309 mg/kg/day
- TD50 (mouse, strain B6C3F1, males, by gavage, site: liver, lesion: hepatocellular adenoma + hepatocellular carcinoma + neoplastic nodule, dosed 104 weeks, study length 105 weeks): 1930 mg/kg/day
- TD50 (mouse, strain B6C3F1, males, by gavage, site: lung, lesion: alveolar/bronchiolar adenoma + alveolar/bronchiolar carcinoma, dosed 104 weeks, study length 105 weeks): 127 mg/kg/day
- TD50 (mouse, strain B6C3F1, males, in feed, site: liver, lesion: hepatocellular adenoma, dosed 104 weeks, study length 104 weeks): 78.2 mg/kg/day (inactive)
- carcinogen call (mouse, strain B6C3F1, males, in feed, site: liver, lesion: hepatocellular carcinoma, dosed 104 weeks, study length 104 weeks): negative (inactive)
- TD50 (mouse, strain B6C3F1, males, in feed, site: lung, lesion: alveolar/bronchiolar adenoma, dosed 104 weeks, study length 104 weeks): 368 mg/kg/day (inactive)
- carcinogen call (mouse, strain B6C3F1, males, in feed, site: lung, lesion: alveolar/bronchiolar carcinoma, dosed 104 weeks, study length 104 weeks): negative (inactive)
- carcinogen call (mouse, strain B6C3F1, males, in feed, site: stomach, lesion: one or several types, types not named, dosed 52 weeks, study length 52 weeks): negative (inactive)
- TD50 (mouse, strain B6C3F1, males, inhaled, site: any site (literature study), lesion: several types, types named in the paper, dosed 104 weeks, study length 104 weeks): 229 mg/kg/day
- TD50 (mouse, strain B6C3F1, males, inhaled, site: lacrimal gland, lesion: cystadenoma, dosed 104 weeks, study length 104 weeks): 82.2 mg/kg/day
- TD50 (mouse, strain B6C3F1, males, inhaled, site: lung, lesion: alveolar/bronchiolar adenoma, dosed 104 weeks, study length 104 weeks): 118 mg/kg/day
- carcinogen call (mouse, strain B6C3F1, males, inhaled, site: lung, lesion: one or several types, types not named, dosed 52 weeks, study length 52 weeks): negative (inactive)
- TD50 (rat, strain Fischer 344, females, by gavage, site: liver, lesion: hepatocellular adenoma + hepatocellular carcinoma + neoplastic nodule, dosed 104 weeks, study length 106 weeks): 168 mg/kg/day
- TD50 (rat, strain Fischer 344, females, by gavage, site: stomach, lesion: squamous-cell papilloma, dosed 104 weeks, study length 106 weeks): 176 mg/kg/day
- TD50 (rat, strain Fischer 344, females, by gavage, site: thyroid gland, lesion: follicular-cell adenoma + follicular-cell carcinoma, dosed 104 weeks, study length 106 weeks): 137 mg/kg/day
- TD50 (rat, strain Fischer 344, females, in feed, site: liver, lesion: hepatocellular adenoma, dosed 104 weeks, study length 104 weeks): 334 mg/kg/day
- carcinogen call (rat, strain Fischer 344, females, in feed, site: stomach, lesion: one or several types, types not named, dosed 52 weeks, study length 52 weeks): negative (inactive)
- TD50 (rat, strain Fischer 344, females, in feed, site: uterus, lesion: endometrial stromal polyp, dosed 104 weeks, study length 104 weeks): 61.4 mg/kg/day
- carcinogen call (rat, strain Fischer 344, females, inhaled, site: any site (literature study), lesion: one or several types, types not named, dosed 52 weeks, study length 52 weeks): negative (inactive)
- carcinogen call (rat, strain Fischer 344, females, inhaled, site: any site (literature study), lesion: several types, types named in the paper, dosed 105 weeks, study length 105 weeks): negative (inactive)
- TD50 (rat, strain Fischer 344, females, inhaled, site: liver, lesion: hepatocellular adenoma, dosed 105 weeks, study length 105 weeks): 1590 mg/kg/day (inactive)
- TD50 (rat, strain Fischer 344, males, by gavage, site: forestomach + liver + stomach, lesion: squamous-cell papilloma + neoplastic nodule + squamous-cell carcinoma, dosed 104 weeks, study length 106 weeks): 33.2 mg/kg/day
- TD50 (rat, strain Fischer 344, males, by gavage, site: forestomach + stomach, lesion: squamous-cell papilloma + squamous-cell carcinoma, dosed 104 weeks, study length 106 weeks): 64.1 mg/kg/day
- TD50 (rat, strain Fischer 344, males, by gavage, site: forestomach + stomach, lesion: squamous-cell papilloma, dosed 104 weeks, study length 106 weeks): 97 mg/kg/day
- TD50 (rat, strain Fischer 344, males, by gavage, site: liver, lesion: hepatocellular adenoma + hepatocellular carcinoma + neoplastic nodule, dosed 104 weeks, study length 106 weeks): 68 mg/kg/day
- TD50 (rat, strain Fischer 344, males, by gavage, site: liver, lesion: hepatocellular carcinoma + neoplastic nodule, dosed 104 weeks, study length 106 weeks): 68 mg/kg/day
- TD50 (rat, strain Fischer 344, males, by gavage, site: liver, lesion: neoplastic nodule, dosed 104 weeks, study length 106 weeks): 76 mg/kg/day
- TD50 (rat, strain Fischer 344, males, by gavage, site: stomach, lesion: squamous-cell carcinoma, dosed 104 weeks, study length 106 weeks): 213 mg/kg/day
- TD50 (rat, strain Fischer 344, males, in feed, site: liver, lesion: hepatocellular adenoma, dosed 104 weeks, study length 104 weeks): 100 mg/kg/day
- TD50 (rat, strain Fischer 344, males, in feed, site: liver, lesion: hepatocellular carcinoma, dosed 104 weeks, study length 104 weeks): 1360 mg/kg/day
- carcinogen call (rat, strain Fischer 344, males, in feed, site: stomach, lesion: one or several types, types not named, dosed 52 weeks, study length 52 weeks): negative (inactive)
- carcinogen call (rat, strain Fischer 344, males, inhaled, site: any site (literature study), lesion: one or several types, types not named, dosed 52 weeks, study length 52 weeks): negative (inactive)
- carcinogen call (rat, strain Fischer 344, males, inhaled, site: any site (literature study), lesion: several types, types named in the paper, dosed 105 weeks, study length 105 weeks): negative (inactive)
- carcinogen call (rat, strain Fischer 344, males, inhaled, site: liver, lesion: hepatocellular adenoma, dosed 105 weeks, study length 105 weeks): negative (inactive)

SMILES: COP(=O)(OC)OC
- TD50 (mouse, strain B6C3F1, females, by gavage, site: any site (literature study), lesion: several types, types named in the paper, dosed 103 weeks, study length 103 weeks): 385 mg/kg/day
- TD50 (mouse, strain B6C3F1, females, by gavage, site: liver, lesion: hepatocellular adenoma + hepatocellular carcinoma + neoplastic nodule, dosed 103 weeks, study length 103 weeks): 6390 mg/kg/day
- TD50 (mouse, strain B6C3F1, females, by gavage, site: lung, lesion: alveolar/bronchiolar adenoma + alveolar/bronchiolar carcinoma, dosed 103 weeks, study length 103 weeks): 3900 mg/kg/day
- TD50 (mouse, strain B6C3F1, females, by gavage, site: uterus, endometrium, lesion: adenocarcinoma, NOS, dosed 103 weeks, study length 103 weeks): 335 mg/kg/day
- carcinogen call (mouse, strain B6C3F1, males, by gavage, site: any site (literature study), lesion: several types, types named in the paper, dosed 103 weeks, study length 103 weeks): negative (inactive)
- TD50 (mouse, strain B6C3F1, males, by gavage, site: lung, lesion: alveolar/bronchiolar adenoma + alveolar/bronchiolar carcinoma, dosed 103 weeks, study length 103 weeks): 61300 mg/kg/day
- carcinogen call (rat, strain BOR:WISW (Wistar), females, in drinking water, site: any site (literature study), lesion: one or several types, types not named, dosed 52 weeks, study length 52 weeks): negative (inactive)
- carcinogen call (rat, strain BOR:WISW (Wistar), females, in drinking water, site: any site (literature study), lesion: several types, types named in the paper, dosed 118 weeks, study length 128 weeks): negative (inactive)
- carcinogen call (rat, strain BOR:WISW (Wistar), females, in drinking water, site: liver, lesion: hepatoma, dosed 118 weeks, study length 128 weeks): negative (inactive)
- carcinogen call (rat, strain BOR:WISW (Wistar), males, in drinking water, site: any site (literature study), lesion: one or several types, types not named, dosed 52 weeks, study length 52 weeks): negative (inactive)
- carcinogen call (rat, strain BOR:WISW (Wistar), males, in drinking water, site: any site (literature study), lesion: several types, types named in the paper, dosed 118 weeks, study length 128 weeks): negative (inactive)
- carcinogen call (rat, strain BOR:WISW (Wistar), males, in drinking water, site: liver, lesion: hepatoma, dosed 118 weeks, study length 128 weeks): negative (inactive)
- TD50 (rat, strain Fischer 344, females, by gavage, site: any site (literature study), lesion: several types, types named in the paper, dosed 104 weeks, study length 105 weeks): 73 mg/kg/day (inactive)
- TD50 (rat, strain Fischer 344, males, by gavage, site: any site (literature study), lesion: several types, types named in the paper, dosed 104 weeks, study length 105 weeks): 54.5 mg/kg/day
- TD50 (rat, strain Fischer 344, males, by gavage, site: liver, lesion: hepatocellular adenoma + hepatocellular carcinoma + neoplastic nodule, dosed 104 weeks, study length 105 weeks): 485 mg/kg/day
- TD50 (rat, strain Fischer 344, males, by gavage, site: subcutaneous tissue, lesion: fibroma, dosed 104 weeks, study length 105 weeks): 123 mg/kg/day
